Blank lines part the entries; values can stand above or below the compound they belong to.
Columns and labels:
AMPK = assay: Intestine-kidney in vitro Transwell model, phospho-AMPK ELISA; assay type: cell-based, mouse; settings: mpkCCDc14 cells below Caco-2 cells on Transwell, after 12 hours, N ≥ 3
Experimental: To collect cysts grown in Matrigel, cysts were kept on ice for 1 h to liquidize the Matrigel and centrifuged at 400×g for 5 min to collect the cyst in the pellet. All standards and samples were measured on a Varioskan LUX microplate reader at a wavelength of 450 nm. The phospho-AMPK to total AMPK ratio was normalized to the PBS group and presented in percentage.

[1] = Biodistribution after oral gavage (ex vivo organ Cy7 fluorescence); settings: 200 μL of 500 µM Cy7-labeled, 24 h, ex vivo imaging, N = 4
Experimental: All animal procedures followed NIH guidelines for the care and use of laboratory animals and were approved by the University of Southern California's Institutional Animal Care and Use Committee. […] Mice were euthanized 24 h postinjection and organs (e.g. brain, heart, lungs, liver, kidneys, spleen, intestines, and bladder) were excised, imaged ex vivo on an AMI HTX in vivo imaging system, and the fluorescence signal was quantified via Aura software (Spectral Instruments Imaging, Tucson, AZ, USA, n ≥ 4). The mean radiance (photons/s/cm^2/sr) for each organ was quantified as a region of interest, and % of total organ fluorescence was obtained by dividing the fluorescence level of each organ by the sum of all the organ regions. Background was subtracted from the PBS-treated group.

[2] = Kidney health in ADPKD mice (i-Stat Chem-8+ blood analysis); assay type: in vivo, mouse
Experimental: On the day of harvest, 90 µL of blood taken from the submandibular vein was analyzed using Chem-8+ cartridges for the i-Stat Handheld Blood Analyzer (Abbott, Chicago, IL, USA). Kidney health markers including measurements of plasma sodium (Na), potassium (K), chloride (Cl), ionized calcium (iCa), total carbon dioxide (tCO2), glucose (Glu), BUN/urea, creatinine (Crea), hematocrit (Hct), and hemoglobin (Hb) were evaluated.

Caco-2 cells = assay: TER measurement of Caco-2 monolayers after CP treatment; assay type: cell-based, human; settings: Caco-2 monolayer, up to 3 days after administration
Experimental: In addition to protection against an acidic environment mimicking the stomach, chitosan has been reported to open tight junctions within the intestinal epithelium and increase bioavailability in vivo ([51]). […] TER was measured three days before treatment and again after administration of nanoparticles or free drug for up to 3 days.
TER measurements were performed using an EVOM2 Epithelial Voltohmmeter (World Precision Instruments, USA).

[3] = cited from earlier work
Description: The primary obstacle in the current management of kidney disease lies in the inadequate drug concentration within the kidney. This limitation is particularly evident in the case of ADPKD, where the only FDA-approved treatment, tolvaptan, achieves ∼5.7% accumulation in the kidney after oral administration ([62]). Similarly, in our study, ∼4.5% of free metformin accumulated in the kidney. Given the pronounced deficiency in kidney bioavailability observed with free drugs, our innovative oral kidney-targeting nanoformulation emerges as a promising solution to the current clinical challenges by pro ...

[4] = design: method as in PMID 24211079; settings: cited from earlier work
[5] = oral every 3 days P30-P120, day of harvest

- kidney accumulation (% of total organ fluorescence) [1]: ~4.5%
- Na ([2]; oral every 3 days P30-P120, blood from submandibular vein, day of harvest): 144.6 ± 1.6 mmol/L
- BUN/Urea [2, 5]: 22.8 ± 7.8 md/dL
- Cl [2, 5]: 113.0 ± 3.2 mmol/L
- Crea [2, 5]: <0.2 md/dL
- Glu [2, 5]: 220 ± 24.4 mg/dL
- Hb [2, 5]: 12.8 ± 0.9 g/dL
- Hct [2, 5]: 37.4 ± 3.0 PCV
- K [2, 5]: 5.9 ± 1.4 mmol/L
- iCa [2, 5]: 1.1 ± 0.2 mmol/L
- tCO2 [2, 5]: 23.1 ± 0.8 mmol/L
Compound: CN(C)C(=N)N=C(N)N [free metformin, metformin]
- phosphorylated AMPK to total AMPK (AMPK): 1.3 ± 0.4
- change in TER (Caco-2 cells): no changes in TER

Compound: Cc1ccccc1C(=O)Nc1ccc(C(=O)N2CCCC(O)c3cc(Cl)ccc32)c(C)c1 (stereo not drawn) [tolvaptan]
- accumulation in the kidney after oral administration [3]: ~5.7%

Compound: Cy7-DSPE-PEG2000-(KKEEE)3K [free amphiphilic monomers, unassembled kidney-targeting amphiphiles]
- critical micelle concentration [4]: ~1 µM

Reference: article PMC11131023, “Oral delivery of nanomedicine for genetic kidney disease” (PNAS Nexus, 2024)
